Test results: patent US8916599B2, “1H-benz imidazole-5-carboxamides as anti-inflammatory agents” (Orexo AB, priority 2008, dated 2014)

These compounds were tested against T1, recombinant human mPGES-1 (Homo sapiens, UniProt O14684) (assay: mPGES-1 inhibition test (microsomes, PGH2 substrate, HTRF detection of PGE2)). Settings: inhibition of mPGES-1 at 1 μM (marked in cell).
T1 construct: made in house; host or cells: Rosetta E. coli (microsomal/membrane fraction)
T1 sequence (O14684 1-152): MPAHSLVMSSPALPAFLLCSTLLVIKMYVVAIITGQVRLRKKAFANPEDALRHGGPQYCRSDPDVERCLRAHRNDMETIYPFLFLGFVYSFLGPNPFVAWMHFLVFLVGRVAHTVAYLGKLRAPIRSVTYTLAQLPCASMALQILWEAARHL
Assay type: biochemical
Experimental: Microsomes from Rosetta E. coli bacteria expressing recombinant human mPGES-1 is dissolved in 0.1 M KPi pH 7.4 buffer containing 2.5 mM GSH. 50 μl of the enzyme is subsequently dispensed in a 384-well plate. 0.5 μl of the inhibitor dissolved in DMSO at is thereafter added to each well and incubated for 25 minutes at room temperature. Subsequently, 2 μl of PGH2 dissolved in an appropriate solvent is added to each well and after one minute the acidified stop solution containing FeCl2 is added. 4 μl of the total volume is transferred to a separate plate and diluted 750-fold in two separate steps before HTRF detection of PGE2.
The HTRf detection is performed by the use of a commercially available kit from CisBio essentially according to the manufacturer's protocol. Briefly, 10 μl of the diluted sample is transferred to a white 384-well plate. 5 μl of d2 and 5 μl Eu3+-Cryptate labeled anti-PGE2 is added to each well containing samples by the use of a Multidrop. The plate is covered with a plastic self-adhesive film, centrifuged at 1200 rpm for 1 minute and subsequently stored at +4° C. over night.
After over night incubation the fluorescence is measured by the use of an appropriate microplate reader. The fluorescence of europium cryptate, and d2 are measured using the following excitation and emission wavelength, europium cryptate: λmax^ex=307 nm, λmax^em=620 nm and d2: λmax^ex=620 nm, λmax^em=665 nm), respectively. The extent of the specific FRET is measured as a ratio of the emission intensity at 665 nm vs. that at 620 nm. A standard curve using synthetic PGE2 is used to quantify the amount of PGE2 in unknown samples.
In the case of `O=C(Nc1ccc(Cl)c(C(F)(F)F)c1)c1ccc2[nH]c(Nc3c(Cl)cccc3Cl)nc2c1` [Example 282, 2-(2,6-Dichloro-phenylamino)-1H-benzimidazole-5-carboxylic acid (4-chloro-3-trifluoromethyl-phenyl)-amide], the inhibition at 1 µM is reported as 100%.
`O=C(Nc1cccc(C(F)(F)F)c1)c1ccc2[nH]c(Nc3c(Cl)cccc3Cl)nc2c1` [Example 283, 2-(2,6-Dichloro-phenylamino)-1H-benzimidazole-5-carboxylic acid (3-trifluoromethyl-phenyl)-amide] showed an inhibition at 1 µM of 100%.
In the case of `COc1cc2c(cc1C(=O)Nc1ccc(Br)cc1)nc(Nc1cc(C)ccc1C(F)(F)F)n2C` [Example 641, 2-(5-Methyl-2-trifluoromethyl-phenylamino)-N-(4-bromphenyl)-6-methoxy-1-methyl-1H-benzimidazol-5-carboxamide], the inhibition at 1 µM is reported as 97%.

Same assay, conditions: inhibition of mPGES-1 at 10 μM
Work on `N[C@H]1C[C@H](n2c(Nc3c(Cl)cccc3Cl)nc3cc(C(=O)Nc4cc(Cl)ccn4)ccc32)C1` [Example 270, 2-(2,6-Dichloro-phenylamino)-1-(trans-3-amino-cyclobutyl)-1H-benzimidazole-5-carboxylic acid (4-chloro-pyridin-2-yl)-amide] yielded an inhibition at 10 µM of 96%.
`Cn1c(Nc2c(Cl)cccc2Cl)nc2cc(C(=O)NC3(C)CCCCC3)c(F)cc21` [Example 164, 2-(2,6-Dichloro-phenylamino)-6-fluoro-1-methyl-1H-benzimidazole-5-carboxylic acid (1-methyl-cyclohexyl)-amide] was tested, and the inhibition at 10 µM was 100%.
`O=C(NCc1cccc(C(F)(F)F)n1)c1ccc2[nH]c(Nc3c(Cl)cccc3Cl)nc2c1` [Example 223, 2-(2,6-Dichloro-phenylamino)-1H-benzimidazole-5-carboxylic acid (6-trifluoromethyl-pyridin-2-ylmethyl)-amide] showed an inhibition at 10 µM of 87%.
With `O=C(NC1COc2ccccc2C1)c1cc2[nH]c(Nc3c(Cl)cccc3Cl)nc2cc1F` (stereo not drawn) [Example 152, 2-(2,6-Dichloro-phenylamino)-6-fluoro-1H-benzimidazole-5-carboxylic acid chroman-3-ylamide] the inhibition at 10 µM was 95%.
For `Cc1cccc(C)c1Nc1nc2cc(C(=O)Nc3ccc(Br)cc3)ccc2n1C` [compound 318], the inhibition at 10 µM was 100%.
`O=C(NCCc1ccncc1)c1ccc2[nH]c(Nc3c(Cl)cccc3Cl)nc2c1` [Example 233, 2-(2,6-Dichloro-phenylamino)-1H-benzimidazole-5-carboxylic acid (2-pyridin-4-yl-ethyl)-amide] gave an inhibition at 10 µM of 67%.
“2-(2-Chloro-6-fluorophenylamino-N-(4-isopropylcyclohexyl)-6-fluoro-1-methyl-1H-benzimidazole-5-carboxamide [Example 363]” was tested, and the “% inhib.” value was 100%.
For `Cn1c(Nc2c(F)cccc2Cl)nc2cc(C(=O)NC3CCCC(C)(C)C3)c(F)cc21` (stereo not drawn) [Example 404, 2-(2-Chloro-6-fluorophenylamino)-N-(3,3-dimethylcyclohexyl)-6-fluoro-1-methyl-1H-benzimidazole-5-carboxamide], the inhibition at 10 µM was 100%.
`O=C(NCc1ccncc1)c1ccc2[nH]c(Nc3c(Cl)cccc3Cl)nc2c1` [Example 236, 2-(2,6-Dichloro-phenylamino)-1H-benzimidazole-5-carboxylic acid (pyridin-4-ylmethyl)-amide] was tested, and the inhibition at 10 µM was 83%.
Compound `CCc1ccc(C)nc1NC(=O)c1ccc2c(c1)nc(Nc1c(Cl)cccc1Cl)n2C` [Example 545, 2-(2,6-Dichlorophenylamino)-N-(3-ethyl-6-methylpyridin-2-yl)-1-methyl-1H-benzimidazole-5-carboxamide] has an inhibition at 10 µM of 89%.
`O=C(Nc1cc(Cl)ccn1)c1ccc2c(c1)nc(Nc1c(Cl)cccc1Cl)n2C1CNC1` [Example 207, 2-(2,6-Dichloro-phenylamino)-1-azetidin-3-yl-1H-benzimidazole-5-carboxylic acid (4-chloro-pyridin-2-yl)-amide(trifluoro-acetate)] showed an inhibition at 10 µM of 97%.
With `COc1cc2c(cc1C(=O)Nc1ccc(Br)cc1)nc(Nc1c(Cl)cccc1Cl)n2C` [Example 359, 2-(2,6-Dichlorophenylamino)-6-methoxy-1-methyl-N-(4-bromo-phenyl)-1H-benzimidazole-5-carboxamide] the inhibition at 10 µM was 100%.
Work on `CN(C)c1cccnc1CNC(=O)c1cc2nc(Nc3c(Cl)cccc3Cl)n(C)c2cc1F` [Example 474, 2-(2,6-Dichlorophenylamino)-N-((3-dimethylamino-pyridin-2-yl)-methyl)-6-fluoro-1-methyl-1H-benzimidazole-5-carboxamide] yielded an inhibition at 10 µM of 100%.
Work on `Cn1c(Nc2c(Cl)cccc2Cl)nc2cc(C(=O)NC3CC(C)(C)C3)c(F)cc21` [Example 447, 2-(2,6-Dichlorophenylamino)-N-(3,3-dimethylcyclobutyl)-6-fluoro-1-methyl-1H-benzimidazole-5-carboxamide] yielded an inhibition at 10 µM of 99%.
In the case of `Cn1c(Nc2c(Cl)cccc2Cl)nc2cc(C(=O)NCCc3cccnc3)ccc21` [Example 259, 2-(2,6-Dichloro-phenylamino)-1-methyl-1H-benzimidazole-5-carboxylic acid (2-pyridin-3-yl-ethyl)-amide], the inhibition at 10 µM is reported as 89%.
`Cc1cc2[nH]c(Nc3c(Cl)cccc3Cl)nc2cc1C(=O)Nc1ccc(Cl)c(F)c1` [Example 145, 2-(2,6-Dichloro-phenylamino)-6-methyl-1H-benzimidazole-5-carboxylic acid (4-chloro-3-fluorophenyl)-amide] showed an inhibition at 10 µM of 100%.
`Cn1c(Nc2c(Cl)cccc2Cl)nc2cc(C(=O)NC3CCCCC3C(F)(F)F)ccc21` (stereo not drawn) [Example 254, 2-(2,6-Dichloro-phenylamino)-1-methyl-1H-benzimidazole-5-carboxylic acid (2-trifluoromethyl-cyclohexyl)-amide] showed an inhibition at 10 µM of 100%.
`Cn1c(Nc2ccc(F)cc2Cl)nc2cc(C(=O)Nc3ccc(Br)cc3)ccc21` [Example 456, N-(4-Bromophenyl)-2-(2-chloro-4-fluorophenylamino)-1-methyl-1H-benzimidazole-5-carboxamide] showed an inhibition at 10 µM of 100%.
`Cn1c(Nc2c(Cl)cccc2Cl)nc2cc(C(=O)NC3CCCC(C(F)(F)F)C3)ccc21` (stereo not drawn) [Example 255, 2-(2,6-Dichloro-phenylamino)-1-methyl-1H-benzimidazole-5-carboxylic acid (3-trifluoromethyl-cyclohexyl)-amide] was tested, and the inhibition at 10 µM was 100%.
`C[C@@H]1CCC(NC(=O)c2cc3nc(Nc4c(F)cccc4Cl)n(C)c3cc2F)C1` (stereo partly drawn) [Example 501, 2-(2-Chloro-6-fluorophenylamino)-6-fluoro-1-methyl-N-((3R)-3-methylcyclopentyl)-1H-benzimidazole-5-carboxamide] showed an inhibition at 10 µM of 98%.
Compound `Cn1c(Nc2c(Cl)cccc2Cl)nc2cc(C(=O)Nc3cccc(Cl)c3)cc(Br)c21` [Example 405, 7-Bromo-N-(3-chlorophenyl)-2-(2,6-dichlorophenylamino)-1-methyl-1H-benzimidazole-5-carboxamide] has an inhibition at 10 µM of 100%.
`CCC1CCC(NC(=O)c2cc3nc(Nc4c(F)cccc4Cl)n(C)c3cc2F)CC1` (stereo not drawn) [Example 362, N-(4-Ethylcyclohexyl)-2-(2-chloro-6-fluorophenylamino)-6-fluoro-1-methyl-1H-benzimidazole-5-carboxamide] was tested, and the inhibition at 10 µM was 100%.
In the case of `COc1cc2c(cc1C(=O)N[C@H]1CC[C@H](C(F)(F)F)CC1)nc(Nc1c(Cl)cccc1Cl)n2C` [Example 369, 2-(2,6-Dichlorophenylamino)-6-methoxy-1-methyl-N-((1r,4r)-4-trifluoromethyl-cyclohexyl)-1H-benzimidazole-5-carboxamide], the inhibition at 10 µM is reported as 100%.
Work on `CC(=O)NCCCn1c(Nc2c(Cl)cccc2Cl)nc2cc(C(=O)Nc3cc(Cl)ccn3)ccc21` [Example 268, 2-(2,6-Dichloro-phenylamino)-1-(3-acetylamino-propyl)-1H-benzimidazole-5-carboxylic acid (4-chloro-pyridin-2-yl)-amide] yielded an inhibition at 10 µM of 94%.
`N#Cc1ccc(NC(=O)c2ccc3[nH]c(Nc4c(Cl)cccc4Cl)nc3c2)nc1` [Example 329, 2-(2,6-Dichloro-phenylamino)-1H-benzimidazole-5-carboxylic acid (5-cyano-pyridin-2-yl)-amide] showed an inhibition at 10 µM of 89%.
`CC1CC(NC(=O)c2ccc3[nH]c(Nc4c(Cl)cccc4Cl)nc3c2)CC(C)(C)C1` (stereo not drawn) [Example 218, 2-(2,6-Dichloro-phenylamino)-1H-benzimidazole-5-carboxylic acid (3,3,5-trimethyl-cyclohexyl)-amide] showed an inhibition at 10 µM of 100%.
`Cn1c(Nc2c(Cl)cccc2Cl)nc2cc(C(=O)NC3CCCCC3)cc(Br)c21` [Example 326, 7-Bromo-2-(2,6-dichloro-phenylamino)-1-methyl-1H-benzimidazole-5-carboxylic acid cyclohexylamide] gave an inhibition at 10 µM of 96%.
